What was measured:
Assay in all cases: relative viability (nuclei count vs DMSO), 5 days (fraction); higher = more cells survive
RU-SKI 43 = compound: CC[C@@H](C)CNCC(=O)N1CCC2=C([C@@H]1COC3=CC=CC(=C3)C)C=CS2 [RU-SKI 43]
In short: (§1)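 After an overnight hold at 37 °C, lung cancer cell lines in 1536-well plates were pinned with five library-drug doses (not always all listed), each √10 from the next, on vehicle-anchored plates. The cells stayed 5 days without fresh medium, then a one-step fix, permeabilisation and Hoechst stain preceded 4× imaging and MetaXpress nuclear counts. A plate passed only with control CV under 25% and at least one doubling. Viability is the median, over plates, of treated-well nuclei relative to vehicle-well nuclei.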

Irinotecan = compound: CCc1c2c(nc3ccc(OC(=O)N4CCC(N5CCCCC5)CC4)cc13)-c1cc3c(c(=O)n1C2)COC(=O)[C@]3(O)CC [Irinotecan]
In short: as §1

MK-8033 = compound: Cn1cc(-c2cnc3ccc4ccc(CS(=O)(=O)NCc5ccccn5)cc4c(=O)c3c2)cn1 [MK-8033]
In short: as §1

Cell Line: NCI-H1666
- relative viability (RU-SKI 43; 0.1 µM): 0.953
- relative viability (RU-SKI 43; 0.3162 µM): 0.954
- relative viability (RU-SKI 43; 1 µM): 0.967
- relative viability (RU-SKI 43; 3.162 µM): 1.04
- relative viability (RU-SKI 43; 10 µM): 0.865
- relative viability (Irinotecan; 0.6325 µM): 0.889
- relative viability (Irinotecan; 2 µM): 0.763
- relative viability (Irinotecan; 6.325 µM): 0.573
- relative viability (Irinotecan; 20 µM): 0.459
- relative viability (MK-8033; 0.02 µM): 0.984
- relative viability (MK-8033; 0.06325 µM): 0.94
- relative viability (MK-8033; 0.2 µM): 0.945
- relative viability (MK-8033; 0.6325 µM): 0.947
- relative viability (MK-8033; 2 µM): 0.96

Cell Line: NCI-H1703
- relative viability (RU-SKI 43; 0.1 µM): 0.82
- relative viability (RU-SKI 43; 0.3162 µM): 1.23
- relative viability (RU-SKI 43; 1 µM): 0.854
- relative viability (RU-SKI 43; 3.162 µM): 0.972
- relative viability (RU-SKI 43; 10 µM): 0.52
- relative viability (Irinotecan; 0.6325 µM): 0.761
- relative viability (Irinotecan; 2 µM): 1.32
- relative viability (Irinotecan; 6.325 µM): 0.613
- relative viability (Irinotecan; 20 µM): 0.205
- relative viability (MK-8033; 0.02 µM): 0.896
- relative viability (MK-8033; 0.06325 µM): 0.85
- relative viability (MK-8033; 0.2 µM): 0.825
- relative viability (MK-8033; 0.6325 µM): 0.911
- relative viability (MK-8033; 2 µM): 0.855

Cell Line: NCI-H1734
- relative viability (RU-SKI 43; 0.1 µM): 0.961
- relative viability (RU-SKI 43; 0.3162 µM): 1.05
- relative viability (RU-SKI 43; 1 µM): 1.03
- relative viability (RU-SKI 43; 3.162 µM): 1.07
- relative viability (RU-SKI 43; 10 µM): 0.88
- relative viability (Irinotecan; 2 µM): 0.77
- relative viability (Irinotecan; 6.325 µM): 0.195
- relative viability (Irinotecan; 20 µM): 0.181
- relative viability (MK-8033; 0.02 µM): 1.1
- relative viability (MK-8033; 0.06325 µM): 0.845
- relative viability (MK-8033; 0.2 µM): 0.944
- relative viability (MK-8033; 0.6325 µM): 0.993
- relative viability (MK-8033; 2 µM): 0.985

Cell Line: NCI-H1755
- relative viability (RU-SKI 43; 0.1 µM): 1.03
- relative viability (RU-SKI 43; 0.3162 µM): 1.03
- relative viability (RU-SKI 43; 1 µM): 1.1
- relative viability (RU-SKI 43; 3.162 µM): 1.1
- relative viability (RU-SKI 43; 10 µM): 1
- relative viability (Irinotecan; 0.6325 µM): 0.966
- relative viability (Irinotecan; 2 µM): 0.984
- relative viability (Irinotecan; 6.325 µM): 0.433
- relative viability (Irinotecan; 20 µM): 0.408
- relative viability (MK-8033; 0.02 µM): 0.982
- relative viability (MK-8033; 0.06325 µM): 1.02
- relative viability (MK-8033; 0.2 µM): 0.945
- relative viability (MK-8033; 0.6325 µM): 0.973
- relative viability (MK-8033; 2 µM): 0.974

Cell Line: NCI-H1792
- relative viability (RU-SKI 43; 0.1 µM): 0.844
- relative viability (RU-SKI 43; 0.3162 µM): 1.08
- relative viability (RU-SKI 43; 1 µM): 1.77
- relative viability (RU-SKI 43; 3.162 µM): 0.889
- relative viability (RU-SKI 43; 10 µM): 1.03
- relative viability (Irinotecan; 0.6325 µM): 0.862
- relative viability (Irinotecan; 2 µM): 0.933
- relative viability (Irinotecan; 6.325 µM): 0.393
- relative viability (Irinotecan; 20 µM): 0.354
- relative viability (MK-8033; 0.02 µM): 1.22
- relative viability (MK-8033; 0.06325 µM): 0.958
- relative viability (MK-8033; 0.2 µM): 0.804
- relative viability (MK-8033; 0.6325 µM): 0.9
- relative viability (MK-8033; 2 µM): 0.805

Cell Line: NCI-H1793
- relative viability (RU-SKI 43; 0.1 µM): 0.986
- relative viability (RU-SKI 43; 0.3162 µM): 0.939
- relative viability (RU-SKI 43; 1 µM): 1
- relative viability (RU-SKI 43; 3.162 µM): 0.894
- relative viability (RU-SKI 43; 10 µM): 0.755
- relative viability (Irinotecan; 2 µM): 0.905
- relative viability (Irinotecan; 6.325 µM): 0.463
- relative viability (Irinotecan; 20 µM): 0.227
- relative viability (MK-8033; 0.02 µM): 0.935
- relative viability (MK-8033; 0.2 µM): 0.761
- relative viability (MK-8033; 0.6325 µM): 0.792
- relative viability (MK-8033; 2 µM): 0.8

Cell Line: NCI-H1915
- relative viability (RU-SKI 43; 0.1 µM): 1.06
- relative viability (RU-SKI 43; 0.3162 µM): 1.11
- relative viability (RU-SKI 43; 1 µM): 1.08
- relative viability (RU-SKI 43; 3.162 µM): 1
- relative viability (RU-SKI 43; 10 µM): 1.02
- relative viability (Irinotecan; 0.6325 µM): 0.353
- relative viability (Irinotecan; 2 µM): 0.475
- relative viability (Irinotecan; 6.325 µM): 0.224
- relative viability (Irinotecan; 20 µM): 0.214
- relative viability (MK-8033; 0.02 µM): 1
- relative viability (MK-8033; 0.06325 µM): 0.916
- relative viability (MK-8033; 0.2 µM): 0.963
- relative viability (MK-8033; 0.6325 µM): 1.02
- relative viability (MK-8033; 2 µM): 0.959

Cell Line: NCI-H1944
- relative viability (RU-SKI 43; 0.1 µM): 1.01
- relative viability (RU-SKI 43; 0.3162 µM): 0.98
- relative viability (RU-SKI 43; 1 µM): 1.08
- relative viability (RU-SKI 43; 3.162 µM): 0.968
- relative viability (RU-SKI 43; 10 µM): 0.932
- relative viability (Irinotecan; 0.6325 µM): 0.67
- relative viability (Irinotecan; 2 µM): 0.559
- relative viability (Irinotecan; 6.325 µM): 0.244
- relative viability (Irinotecan; 20 µM): 0.194
- relative viability (MK-8033; 0.02 µM): 0.927
- relative viability (MK-8033; 0.06325 µM): 0.768
- relative viability (MK-8033; 0.2 µM): 0.982
- relative viability (MK-8033; 0.6325 µM): 0.968
- relative viability (MK-8033; 2 µM): 1.03

Cell Line: NCI-H1975
- relative viability (RU-SKI 43; 0.1 µM): 1.07
- relative viability (RU-SKI 43; 0.3162 µM): 1.25
- relative viability (RU-SKI 43; 1 µM): 1.05
- relative viability (RU-SKI 43; 3.162 µM): 1.01
- relative viability (RU-SKI 43; 10 µM): 0.922
- relative viability (Irinotecan; 0.6325 µM): 0.894
- relative viability (Irinotecan; 2 µM): 1.04
- relative viability (Irinotecan; 6.325 µM): 0.622
- relative viability (Irinotecan; 20 µM): 0.196
- relative viability (MK-8033; 0.02 µM): 0.892
- relative viability (MK-8033; 0.06325 µM): 0.905
- relative viability (MK-8033; 0.2 µM): 0.862
- relative viability (MK-8033; 0.6325 µM): 0.854
- relative viability (MK-8033; 2 µM): 0.931

Cell Line: NCI-H1993
- relative viability (RU-SKI 43; 0.1 µM): 0.927
- relative viability (RU-SKI 43; 0.3162 µM): 0.899
- relative viability (RU-SKI 43; 1 µM): 1.06
- relative viability (RU-SKI 43; 3.162 µM): 0.924
- relative viability (RU-SKI 43; 10 µM): 0.925
- relative viability (Irinotecan; 0.6325 µM): 0.596
- relative viability (Irinotecan; 2 µM): 0.889
- relative viability (Irinotecan; 6.325 µM): 0.667
- relative viability (Irinotecan; 20 µM): 0.628
- relative viability (MK-8033; 0.02 µM): 0.925
- relative viability (MK-8033; 0.06325 µM): 0.736
- relative viability (MK-8033; 0.2 µM): 0.663
- relative viability (MK-8033; 0.6325 µM): 0.736
- relative viability (MK-8033; 2 µM): 0.727

Cell Line: NCI-H2009
- relative viability (RU-SKI 43; 0.1 µM): 1.02
- relative viability (RU-SKI 43; 0.3162 µM): 1.07
- relative viability (RU-SKI 43; 1 µM): 1.07
- relative viability (RU-SKI 43; 3.162 µM): 1.06
- relative viability (RU-SKI 43; 10 µM): 1.01
- relative viability (Irinotecan; 0.6325 µM): 0.716
- relative viability (Irinotecan; 2 µM): 0.733
- relative viability (Irinotecan; 6.325 µM): 0.272
- relative viability (Irinotecan; 20 µM): 0.153
- relative viability (MK-8033; 0.02 µM): 1.05
- relative viability (MK-8033; 0.06325 µM): 1.01
- relative viability (MK-8033; 0.2 µM): 0.953
- relative viability (MK-8033; 0.6325 µM): 0.945
- relative viability (MK-8033; 2 µM): 0.961

From the supplement of paper PMC10307832
